In patent US20150231090A1 (Hong Kong Baptist University, priority 2013, published 2015):

Assay: Toxicity of Guttiferone K in vivo
Set-up: species or system BALB/c male mice
Settings: 1, 3, 10 mg/kg i.p. for 28 days

CC(C)=CCC[C@@]1(C)[C@H](CC=C(C)C)C[C@]2(CC=C(C)C)C(=O)[C@@]1(CC=C(C)C)C(=O)C(C(=O)c1ccc(O)c(O)c1)=C2O [Guttiferone K]
organ size and cell morphology of target organs (brain, heart, lung, liver, spleen, kidney): no evidence of organ size and cell morphology of target organs
